What all share (format): ADME
Set-up in all cases: scale not given: the % may be the effect or the level left

One data set has as its target T1, CYP2C8 (Homo sapiens, UniProt P10632).
T1 sequence (P10632 whole entry): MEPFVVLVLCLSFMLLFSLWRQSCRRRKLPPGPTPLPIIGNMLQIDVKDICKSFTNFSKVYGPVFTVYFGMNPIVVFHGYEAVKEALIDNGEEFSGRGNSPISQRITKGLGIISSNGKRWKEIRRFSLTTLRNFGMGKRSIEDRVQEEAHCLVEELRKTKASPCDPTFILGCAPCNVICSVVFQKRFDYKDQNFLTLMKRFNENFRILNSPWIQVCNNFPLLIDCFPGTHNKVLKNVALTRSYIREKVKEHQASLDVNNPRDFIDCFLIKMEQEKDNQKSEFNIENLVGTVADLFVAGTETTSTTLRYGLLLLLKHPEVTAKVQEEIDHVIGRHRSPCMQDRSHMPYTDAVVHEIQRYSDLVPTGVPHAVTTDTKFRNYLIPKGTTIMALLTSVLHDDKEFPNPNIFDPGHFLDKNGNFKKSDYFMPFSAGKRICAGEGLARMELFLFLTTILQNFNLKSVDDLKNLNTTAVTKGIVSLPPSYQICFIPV
Nature of the data set: Inhibition of CYP2C8 in human liver microsomes assessed as enzyme-mediated metabolite formation at 0.3 uM using paclitaxel as substrate incubated for 5 mins followed by NADPH addition measured after 30 mins by LC-MS/MS analysis relative to control. The settings on record: probe paclitaxel, read-out: Activity.

The target of data set [1] is T2, CYP2C9 (Homo sapiens, UniProt P11712). Nature of the data set: Inhibition of CYP2C9 in human liver microsomes assessed as enzyme-mediated metabolite formation at 30 uM using diclofenac as substrate incubated for 5 mins followed by NADPH addition measured after 30 mins by LC-MS/MS analysis relative to control. The conditions noted are these: probe diclofenac, read-out: Activity. In general terms: Liver microsomes are vesicles of endoplasmic reticulum, rich in cytochrome P450 enzymes.
T2 sequence (P11712 whole entry): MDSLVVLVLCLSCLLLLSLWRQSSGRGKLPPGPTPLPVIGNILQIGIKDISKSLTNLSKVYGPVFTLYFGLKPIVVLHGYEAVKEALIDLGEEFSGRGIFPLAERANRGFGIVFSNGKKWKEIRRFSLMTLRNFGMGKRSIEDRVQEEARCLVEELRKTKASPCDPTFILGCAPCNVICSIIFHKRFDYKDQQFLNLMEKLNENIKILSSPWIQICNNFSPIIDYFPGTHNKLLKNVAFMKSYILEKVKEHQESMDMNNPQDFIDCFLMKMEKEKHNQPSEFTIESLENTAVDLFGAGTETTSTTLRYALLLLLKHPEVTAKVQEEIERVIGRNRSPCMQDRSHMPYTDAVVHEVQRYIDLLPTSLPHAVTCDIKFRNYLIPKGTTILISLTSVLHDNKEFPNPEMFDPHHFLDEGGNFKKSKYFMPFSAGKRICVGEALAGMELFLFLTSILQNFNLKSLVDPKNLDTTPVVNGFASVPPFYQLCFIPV

The target in data set [2] is T3, CYP2C19 (Homo sapiens, UniProt P33261). Nature of the data set: Inhibition of CYP2C19 in human liver microsomes assessed as enzyme-mediated metabolite formation at 0.3 uM using (S)-mephenytoin as substrate incubated for 5 mins followed by NADPH addition measured after 30 mins by LC-MS/MS analysis relative to control. The conditions noted are these: probe (S)-mephenytoin, read-out: Activity.
T3 sequence (P33261 whole entry): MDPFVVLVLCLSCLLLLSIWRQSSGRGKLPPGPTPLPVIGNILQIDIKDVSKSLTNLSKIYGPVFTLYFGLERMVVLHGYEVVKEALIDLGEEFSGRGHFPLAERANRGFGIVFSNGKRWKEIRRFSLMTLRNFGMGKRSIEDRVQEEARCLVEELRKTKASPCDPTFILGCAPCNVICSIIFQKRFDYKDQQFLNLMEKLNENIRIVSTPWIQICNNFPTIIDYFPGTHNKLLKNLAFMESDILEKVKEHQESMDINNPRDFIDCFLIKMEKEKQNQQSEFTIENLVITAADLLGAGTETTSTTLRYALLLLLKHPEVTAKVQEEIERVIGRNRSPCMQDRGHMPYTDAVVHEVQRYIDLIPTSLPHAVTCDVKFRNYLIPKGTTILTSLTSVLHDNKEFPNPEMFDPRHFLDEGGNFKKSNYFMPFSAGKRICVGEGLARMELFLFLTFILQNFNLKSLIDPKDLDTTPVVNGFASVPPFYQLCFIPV

Data set [3] concerns the target T3, CYP2C19. Nature of the data set: Inhibition of CYP2C19 in human liver microsomes assessed as enzyme-mediated metabolite formation at 10 uM using (S)-mephenytoin as substrate incubated for 5 mins followed by NADPH addition measured after 30 mins by LC-MS/MS analysis relative to control. The conditions noted are these: probe (S)-mephenytoin, read-out: Activity.

Data set [4] has as its target T3, CYP2C19. Nature of the data set: Inhibition of CYP2C19 in human liver microsomes assessed as enzyme-mediated metabolite formation at 30 uM using (S)-mephenytoin as substrate incubated for 5 mins followed by NADPH addition measured after 30 mins by LC-MS/MS analysis relative to control. The settings on record: probe (S)-mephenytoin, read-out: Activity.
For data set [5], the target named is T4, CYP2D6 (Homo sapiens, UniProt P10635). Nature of the data set: Inhibition of CYP2D6 in human liver microsomes assessed as enzyme-mediated metabolite formation at 30 uM using dextromethorphan as substrate incubated for 5 mins followed by NADPH addition measured after 30 mins by LC-MS/MS analysis relative to control. The settings on record: probe dextromethorphan, read-out: Activity.
T4 sequence (P10635 whole entry): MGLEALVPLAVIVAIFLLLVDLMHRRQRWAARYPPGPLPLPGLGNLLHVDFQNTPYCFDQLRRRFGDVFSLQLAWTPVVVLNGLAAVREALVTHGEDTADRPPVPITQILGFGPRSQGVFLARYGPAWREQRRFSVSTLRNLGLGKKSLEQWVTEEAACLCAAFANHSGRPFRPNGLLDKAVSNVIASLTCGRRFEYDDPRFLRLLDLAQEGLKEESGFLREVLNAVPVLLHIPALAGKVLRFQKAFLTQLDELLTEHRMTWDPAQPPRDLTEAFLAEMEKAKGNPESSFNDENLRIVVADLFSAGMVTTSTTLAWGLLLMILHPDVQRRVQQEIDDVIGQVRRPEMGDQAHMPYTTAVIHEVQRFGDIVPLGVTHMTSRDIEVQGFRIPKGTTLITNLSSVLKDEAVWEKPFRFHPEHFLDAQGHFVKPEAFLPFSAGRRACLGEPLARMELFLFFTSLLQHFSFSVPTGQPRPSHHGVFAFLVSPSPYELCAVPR

In data set [6] the target is T5, CYP3A4 (Homo sapiens, UniProt P08684). Nature of the data set: Inhibition of CYP3A4 in human liver microsomes assessed as enzyme-mediated metabolite formation at 30 uM using midazolam as substrate incubated for 5 mins followed by NADPH addition measured after 30 mins by LC-MS/MS analysis relative to control. The conditions noted are these: probe midazolam, read-out: Activity.
T5 sequence (P08684 whole entry): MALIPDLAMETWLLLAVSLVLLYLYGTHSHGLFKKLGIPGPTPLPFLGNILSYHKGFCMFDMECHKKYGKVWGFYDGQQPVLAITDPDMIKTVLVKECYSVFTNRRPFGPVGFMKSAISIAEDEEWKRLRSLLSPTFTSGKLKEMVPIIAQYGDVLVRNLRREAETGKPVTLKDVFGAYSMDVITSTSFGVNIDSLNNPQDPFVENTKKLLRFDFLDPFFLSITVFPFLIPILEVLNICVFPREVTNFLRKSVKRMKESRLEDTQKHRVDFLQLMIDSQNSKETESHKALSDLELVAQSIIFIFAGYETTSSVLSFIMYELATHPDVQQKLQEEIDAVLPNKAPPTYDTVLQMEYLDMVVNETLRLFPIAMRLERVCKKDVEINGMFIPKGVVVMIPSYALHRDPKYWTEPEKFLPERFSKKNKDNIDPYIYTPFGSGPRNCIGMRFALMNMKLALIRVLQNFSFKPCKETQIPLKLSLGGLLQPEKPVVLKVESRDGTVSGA

Another data set concerns the target T6, CYP2A6 (Homo sapiens, UniProt P11509).
T6 sequence (P11509 whole entry): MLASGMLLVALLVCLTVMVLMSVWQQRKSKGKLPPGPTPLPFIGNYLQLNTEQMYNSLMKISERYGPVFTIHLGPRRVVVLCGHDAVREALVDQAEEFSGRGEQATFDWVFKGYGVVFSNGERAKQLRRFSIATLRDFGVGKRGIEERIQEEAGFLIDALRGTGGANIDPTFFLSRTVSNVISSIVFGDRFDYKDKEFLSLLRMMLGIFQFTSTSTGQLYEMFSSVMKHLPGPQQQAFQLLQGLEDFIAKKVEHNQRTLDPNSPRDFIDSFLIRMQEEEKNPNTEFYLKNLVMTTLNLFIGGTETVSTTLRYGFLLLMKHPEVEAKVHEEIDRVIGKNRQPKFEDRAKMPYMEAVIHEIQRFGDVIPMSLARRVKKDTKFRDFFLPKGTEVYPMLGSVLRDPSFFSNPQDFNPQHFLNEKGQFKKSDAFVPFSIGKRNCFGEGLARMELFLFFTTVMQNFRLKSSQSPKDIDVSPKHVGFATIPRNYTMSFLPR
Nature of the data set: Inhibition of CYP2A6 in human liver microsomes assessed as enzyme-mediated metabolite formation at 10 uM using coumarin as substrate preincubated for 20 mins followed by substrate addition measured after 30 mins in presence of NADPH by LC-MS/MS analysis relative to control. The conditions noted are these: probe coumarin, read-out: Activity.

Data set [7] concerns the target T2, CYP2C9. Nature of the data set: Inhibition of CYP2C9 in human liver microsomes assessed as enzyme-mediated metabolite formation at 30 uM using diclofenac as substrate preincubated for 20 mins followed by substrate addition measured after 30 mins in presence of NADPH by LC-MS/MS analysis relative to control. The settings on record: probe diclofenac, read-out: Activity.

For data set [8], the target named is T3, CYP2C19. Nature of the data set: Inhibition of CYP2C19 in human liver microsomes assessed as enzyme-mediated metabolite formation at 1 uM using (S)-mephenytoin as substrate preincubated for 20 mins followed by substrate addition measured after 30 mins in presence of NADPH by LC-MS/MS analysis relative to control. The conditions noted are these: probe (S)-mephenytoin, read-out: Activity.

In data set [9] the target is T4, CYP2D6. Nature of the data set: Inhibition of CYP2D6 in human liver microsomes assessed as enzyme-mediated metabolite formation at 10 uM using dextromethorphan as substrate preincubated for 20 mins followed by substrate addition measured after 30 mins in presence of NADPH by LC-MS/MS analysis relative to control. The conditions noted are these: probe dextromethorphan, read-out: Activity.

Data set [10] concerns the target T5, CYP3A4. Nature of the data set: Inhibition of CYP3A4 in human liver microsomes assessed as enzyme-mediated metabolite formation at 1 uM using testosterone as substrate preincubated for 20 mins followed by substrate addition measured after 30 mins in presence of NADPH by LC-MS/MS analysis relative to control. The conditions noted are these: probe testosterone, read-out: Activity.

For data set [11], the target named is T5, CYP3A4. Nature of the data set: Inhibition of CYP3A4 in human liver microsomes assessed as enzyme-mediated metabolite formation at 30 uM using testosterone as substrate preincubated for 20 mins followed by substrate addition measured after 30 mins in presence of NADPH by LC-MS/MS analysis relative to control. The conditions noted are these: probe testosterone, read-out: Activity.

Each structure is given as a SMILES string.

`CCCCCCCC(=O)CCc1ccc(O)c(OC)c1`: the activity at 0.5 h, 0.3 µM on CYP2C8 turned out to be 82%; on CYP2C19 [2], 85.8%. The activity at 0.5 h, 30 µM amounted to 30.9% on CYP2C9 [1]; 42% on CYP2C19 [4]; 53.8% on CYP2D6 [5]; 72% on CYP3A4 [6]; 46.9% at CYP2C9 [7]; 62.3% at CYP3A4 [11]. Further, the activity at 0.5 h, 10 µM was found to be 51.5% at CYP2C19 [3], 96.1% on CYP2A6 and 99.4% at CYP2D6 [9]. The figures for the activity at 0.5 h, 1 µM on CYP2C19 [8] and at CYP3A4 [10] were 72.1% and 89.8%, respectively.

The values above are taken from ChEMBL document CHEMBL4007467, “Effects of 6-paradol, an unsaturated ketone from gingers, on cytochrome P450-mediated drug metabolism” (Bioorg Med Chem Lett, 2017).
